Calls of active or inactive are those of the source. The calls are words filed in the database; no cut-off is given here.

The subject of test [1] is Jurkat. Put plainly: Inhibition of etoposide-induced apoptosis in human Jurkat T cells at 1 uM. It is filed as functional, cell-based.
In test [2] the test system is Jurkat. Put plainly: Inhibition of etoposide-induced apoptosis in human Jurkat T cells at 10 uM. The test is classed as functional, cell-based.

With `Cc1cccc(C)c1C(=O)OCC(=O)[C@H](CC(=O)O)NC(=O)[C@H](CCCCNc1ccc([N+](=O)[O-])cc1[N+](=O)[O-])NC(=O)[C@H](CCC(=O)O)NC(=O)OCc1ccccc1`, the result with Jurkat [1] and in the test with Jurkat [2] was Active.
